One compound from US20230147257A1 (DONG-A ST CO., LTD., priority 2020, published 2023) can be followed below.

Test [1] concerns the target T1, AhR (Homo sapiens, UniProt P35869).
T1 construct: host or cells: HepG2
T1 sequence (P35869 11-848): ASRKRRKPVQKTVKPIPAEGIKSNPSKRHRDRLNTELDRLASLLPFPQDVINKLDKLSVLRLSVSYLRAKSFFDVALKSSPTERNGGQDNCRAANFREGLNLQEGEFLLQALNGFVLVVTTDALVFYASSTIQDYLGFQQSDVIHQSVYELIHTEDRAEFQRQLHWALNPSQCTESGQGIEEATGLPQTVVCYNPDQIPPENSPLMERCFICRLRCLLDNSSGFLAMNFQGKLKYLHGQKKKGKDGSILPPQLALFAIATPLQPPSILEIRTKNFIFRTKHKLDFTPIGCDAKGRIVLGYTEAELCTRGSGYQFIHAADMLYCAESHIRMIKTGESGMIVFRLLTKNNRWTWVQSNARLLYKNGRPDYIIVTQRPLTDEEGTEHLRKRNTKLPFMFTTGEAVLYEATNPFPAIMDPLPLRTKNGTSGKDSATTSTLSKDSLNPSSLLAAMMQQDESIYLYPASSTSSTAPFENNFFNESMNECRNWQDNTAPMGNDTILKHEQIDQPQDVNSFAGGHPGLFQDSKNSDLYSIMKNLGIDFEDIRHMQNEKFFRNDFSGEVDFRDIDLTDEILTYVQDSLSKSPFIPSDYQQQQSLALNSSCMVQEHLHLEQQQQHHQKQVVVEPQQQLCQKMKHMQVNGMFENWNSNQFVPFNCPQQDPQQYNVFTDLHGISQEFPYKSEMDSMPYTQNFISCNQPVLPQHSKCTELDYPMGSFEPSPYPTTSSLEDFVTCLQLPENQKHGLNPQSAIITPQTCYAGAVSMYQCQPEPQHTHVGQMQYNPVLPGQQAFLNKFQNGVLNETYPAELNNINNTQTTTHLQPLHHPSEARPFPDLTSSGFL
In words: In vitro assay 3: XRE-luciferase reporter assay, agonism in human cell line (HepG2). Type of test: cell-based. The settings on record: HepG2 XRE-Luc, tryptophan free medium, test compound alone, 6 hours. An outline of the steps:
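HepG2 cells co-transfected with XRE-firefly luciferase and constitutive Nano-luciferase reporters, plated in tryptophan-free medium with 1% dialyzed FBS, then treated with compound for 6 h at 37 °C. Firefly/Nano-Luc ratio used to derive EC50 by four-parameter nonlinear regression; TCDD as positive control.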

In test [2] the target is T1, AhR. In words: In vitro assay 4: endogenous AhR activity assay (CYP1A1 and CYP1B1 mRNA, qRT-PCR, HepG2 cells). The class given is cell-based. The note with it: TCDD 10 nM with compound 123 nM, 4 hours, mRNA relative to β-actin. As for the experimental part:
In Vitro Assay 4: Endogenous AhR Activity Assay
HepG2 cells were seeded in 12-well plate (3×10^5 cells/well). A day after seeding, the cells were treated with TCDD (10 nM) alone or with compounds (123 nM) for 4 hours. Total RNA was extracted using Trizol (Thermo Fisher Scientific). cDNA synthesis and quantitative RT-PCR (qRT-PCR) assays were performed using PrimeScript™ RT Master Mix (TAKARA) and TB Green™ Premix Ex Taq™ II (TAKARA) in accordance with manufacturer's instruction. For the measurement of endogenous AhR activity, relative mRNA levels of CYP1A1 and CYP1B1 were quantitated relative to β(beta)-actin mRNA by the comparative Ct (ΔΔCt) method. The percent inhibitions were calculated according to: […]

Read-outs that look alike come from different tables or passages of the source. Some results are limits rather than exact numbers.

Regarding `CC(CO)n1cnc2c(-c3cccnc3)nc(-c3ccc(Cl)cc3)cc2c1=O` (stereo not shown) [Example 46, 6-(4-chlorophenyl)-3-(1-hydroxypropan-2-yl)-8-(pyridin-3-yl)pyrido[3,4-d]pyrimidin-4(3H)-one], the EC50 is above 30000 nM at AhR [1] (read-out: Assay 3: AhR-Luc Human Agonism (EC50)) and above 10000 nM on AhR [1] (read-out: Assay 3: AhR-Luc Human Agonism (EC50, nM), class in brackets). Besides, the inhibition at 0.123 µM on AhR [2] (read-out: CYP1A1 (% Inhibition)) amounted to 90.7%; at AhR [2] (read-out: CYP1B1 (% Inhibition)), 99.1%.
